According to patent US8895585B2, “Nicotinamide derivative or salt thereof” (FUJIFILM Corporation, priority 2010, dated 2014):

How the values were obtained:
[1] = tested on: THP-1 cells; assay: TNFα generation assay; assay type: cell-based, human; details: Homo sapiens, THP-1, THP-1 cells; Table 22; read-out: IC50 in TNFα generation assay
Method in brief: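 Secreted TNFα in supernatant quantified by ELISA or AlphaLISA after 7 h culture on human IgG-coated wells (10 μg/ml coating). Cells were IFN-γ-differentiated THP-1 (10 ng/ml, 2 days), exposed to compound for 30 min at room temperature before plating.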

[2] = molecular target: T1, glutathione S-transferase (GST)-fused full-length human Syk protein (Homo sapiens, UniProt P43405); assay: Syk enzyme assay; assay type: biochemical; details: Syk enzyme assay, Test Example 1; read-out: IC50 of Syk-inhibitory activity
T1 construct: (GST)-fused full-length human Syk protein; GST (glutathione S-transferase); purchased Carna Biosciences
Method in brief: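 IC50 values come from a time-resolved FRET readout (615 and 665 nm) of substrate phosphorylation, measured after an EDTA stop and 1 h antibody binding. The kinase reaction ran 40 min at room temperature with 27 μM ATP and 0.4 μM biotin-peptide, following a 15 min compound preincubation with baculovirus-made GST-full-length human Syk.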

IC50 [1]	IC50 [2]	SMILES
130 to 200 nM	10 to 50 nM	NC(=O)c1cc(F)c(N[C@@H]2CCCC[C@@H]2N)nc1Nc1cncc(F)c1 (relative stereo) [Example 004-105, 6-(cis-2-aminocyclohexylamino)-5-fluoro-2-((5-fluoropyridin-3-yl)amino)nicotinamide]
130 to 200 nM	< 10 nM	COCCOc1cccc(-c2cncc(Nc3nc(N[C@@H]4CCCC[C@@H]4N)c(F)cc3C(N)=O)c2)c1 (relative stereo) [Example 004-109, 6-(cis-2-aminocyclohexylamino)-5-fluoro-2-((5-(3-(2-methoxyethoxy)phenyl)pyridin-3-yl)-amino)nicotinamide]
130 to 200 nM	< 10 nM	COc1cccc(-c2cncc(Nc3nc(N[C@@H]4CCCC[C@@H]4N)c(F)cc3C(N)=O)c2)c1 (relative stereo) [Example 004-113, 6-(cis-2-aminocyclohexylamino)-5-fluoro-2-((5-(3-methoxyphenyl)pyridin-3-yl)amino)-nicotinamide]
65 to 130 nM	< 10 nM	COc1ccc(-c2cncc(Nc3nc(N[C@@H]4CCCC[C@@H]4N)c(F)cc3C(N)=O)c2)cc1 (relative stereo) [Example 004-114, 6-(cis-2-aminocyclohexylamino)-5-fluoro-2-((5-(4-methoxyphenyl)pyridin-3-yl)amino)-nicotinamide]
130 to 200 nM	< 10 nM	Cn1c(F)cc2cc(Nc3nc(N[C@@H]4CCCC[C@@H]4N)c(F)cc3C(N)=O)ccc21 (relative stereo) [Example 004-117, 6-(cis-2-aminocyclohexylamino)-5-fluoro-2-((2-fluoro-1-methyl-1H-indol-5-yl)amino)-nicotinamide]
65 to 130 nM	< 10 nM	NC(=O)c1cc(F)c(N[C@@H]2CCCC[C@@H]2N)nc1Nc1cncc(-c2cnco2)c1 (relative stereo) [Example 004-118, 6-(cis-2-aminocyclohexylamino)-5-fluoro-2-((5-(oxazol-5-yl)pyridin-3-yl)amino)-nicotinamide]
130 to 200 nM	< 10 nM	NC(=O)c1cc(F)c(N[C@@H]2CCCC[C@@H]2N)nc1Nc1cnc2cc(N3CCOCC3)ccc2c1 (relative stereo) [Example 004-123, 6-(cis-2-aminocyclohexylamino)-5-fluoro-2-((7-morpholinoquinolin-3-yl)amino)-nicotinamide]
65 to 130 nM	< 10 nM	NC(=O)c1cc(F)c(N[C@@H]2CCCC[C@@H]2N)nc1Nc1cnc2cc(N)ccc2c1 (relative stereo) [Example 004-125, 6-(cis-2-aminocyclohexylamino)-2-((7-aminoquinolin-3-yl)amino)-5-fluoronicotinamide]
130 to 200 nM	< 10 nM	COCCOc1ccc2cc(Nc3nc(N[C@@H]4CCCC[C@@H]4N)c(F)cc3C(N)=O)cnc2c1 (relative stereo) [Example 004-127, 6-(cis-2-aminocyclohexylamino)-5-fluoro-2-((7-(2-methoxyethoxy)quinolin-3-yl)amino)-nicotinamide]
65 to 130 nM	< 10 nM	COc1ccc2cc(Nc3nc(N[C@@H]4CCCC[C@@H]4N)c(F)cc3C(N)=O)cnc2c1 (relative stereo) [Example 004-128, 6-(cis-2-aminocyclohexylamino)-5-fluoro-2-((7-methoxyquinolin-3-yl)amino)nicotinamide]
65 to 130 nM	< 10 nM	NC(=O)c1cc(F)c(N[C@@H]2CCCC[C@@H]2N)nc1Nc1ccccc1 (relative stereo) [Example 004-129, 6-(cis-2-aminocyclohexylamino)-5-fluoro-2-(phenylamino)nicotinamide]
65 to 130 nM	10 to 50 nM	CC(=O)c1cncc(Nc2nc(N[C@@H]3CCCC[C@@H]3N)c(F)cc2C(N)=O)c1 (relative stereo) [Example 004-132, 2-((5-acetylpyridin-3-yl)amino)-6-(cis-2-aminocyclohexylamino)-5-fluoronicotinamide]
65 to 130 nM	< 10 nM	NC(=O)c1cc(F)c(N[C@@H]2CCCC[C@@H]2N)nc1Nc1cncc(-c2ccno2)c1 (relative stereo) [Example 004-141, 6-(cis-2-aminocyclohexylamino)-5-fluoro-2-((5-(isoxazol-5-yl)pyridin-3-yl)amino)-nicotinamide]
65 to 130 nM	< 10 nM	NC(=O)c1cc(F)c(N[C@@H]2CCCC[C@@H]2N)nc1Nc1cncc(-c2ccccc2F)c1 (relative stereo) [Example 004-143, 6-(cis-2-aminocyclohexylamino)-5-fluoro-2-((5-(2-fluorophenyl)pyridin-3-yl)amino)-nicotinamide]
130 to 200 nM	< 10 nM	COc1ccccc1-c1cncc(Nc2nc(N[C@@H]3CCCC[C@@H]3N)c(F)cc2C(N)=O)c1 (relative stereo) [Example 004-149, 6-(cis-2-aminocyclohexylamino)-5-fluoro-2-((5-(2-methoxyphenyl)pyridin-3-yl)amino)-nicotinamide]
65 to 130 nM	< 10 nM	NC(=O)c1cc(F)c(N[C@@H]2CCCC[C@@H]2N)nc1Nc1cccc2cnccc12 (relative stereo) [Example 004-159, 6-(cis-2-aminocyclohexylamino)-5-fluoro-2-((isoquinolin-5-yl)amino)nicotinamide]
130 to 200 nM	10 to 50 nM	NC(=O)c1cc(F)c(N[C@@H]2CCCC[C@@H]2N)nc1Nc1cnc2c(c1)OCCO2 (relative stereo) [Example 004-161, 6-(cis-2-aminocyclohexylamino)-2-((2,3-dihydro-[1,4]dioxino[2,3-b]pyridin-7-yl)amino)-5-fluoronicotinamide]
130 to 200 nM	< 10 nM	NC(=O)c1cc(F)c(N[C@@H]2CCCC[C@@H]2N)nc1Nc1cnc2c(c1)CCC2 (relative stereo) [Example 004-162, 6-(cis-2-aminocyclohexylamino)-2-((6,7-dihydro-5H-cyclopenta[b]pyridin-3-yl)amino)-5-fluoronicotinamide]
< 65 nM	< 10 nM	NC(=O)c1cc(F)c(N[C@@H]2CCCC[C@@H]2N)nc1Nc1ccc2cnccc2c1 (relative stereo) [Example 004-163, 6-(cis-2-aminocyclohexylamino)-5-fluoro-2-((isoquinolin-6-yl)amino)nicotinamide]
130 to 200 nM	< 10 nM	COc1nccc2cc(Nc3nc(N[C@@H]4CCCC[C@@H]4N)c(F)cc3C(N)=O)ccc12 (relative stereo) [Example 004-164, 6-(cis-2-aminocyclohexylamino)-5-fluoro-2-((1-methoxyisoquinolin-6-yl)amino)-nicotinamide]
130 to 200 nM	< 10 nM	COCCOc1nccc2cc(Nc3nc(N[C@@H]4CCCC[C@@H]4N)c(F)cc3C(N)=O)ccc12 (relative stereo) [Example 004-168, 6-(cis-2-aminocyclohexylamino)-5-fluoro-2-((1-(2-methoxyethoxy)isoquinolin-6-yl)amino)-nicotinamide]
130 to 200 nM	< 10 nM	NC(=O)c1cc(F)c(N[C@@H]2CCCC[C@@H]2N)nc1Nc1cncc(-c2ccc(F)cc2F)c1 (relative stereo) [Example 004-181, 6-(cis-2-aminocyclohexylamino)-2-((5-(2,4-difluorophenyl)pyridin-3-yl)amino)-5-fluoronicotinamide]
65 to 130 nM	10 to 50 nM	COCc1cncc(Nc2nc(N[C@@H]3CCCC[C@@H]3N)c(F)cc2C(N)=O)c1 (relative stereo) [Example 004-188, 6-(cis-2-aminocyclohexylamino)-5-fluoro-2-((5-(methoxymethyl)pyridin-3-yl)amino)nicotinamide]
130 to 200 nM	< 10 nM	COc1ccc(-c2cncc(Nc3nc(N[C@@H]4CCCC[C@@H]4N)c(F)cc3C(N)=O)c2)c(OC)c1 (relative stereo) [Example 004-190, 6-(cis-2-aminocyclohexylamino)-2-((5-(2,4-dimethoxyphenyl)pyridin-3-yl)amino)-5-fluoronicotinamide]
65 to 130 nM	10 to 50 nM	COCc1cc(Nc2nc(N[C@@H]3CCCC[C@@H]3N)c(F)cc2C(N)=O)ccn1 (relative stereo) [Example 004-191, 6-(cis-2-aminocyclohexylamino)-5-fluoro-2-((2-(methoxymethyl)pyridin-4-yl)amino)nicotinamide]
65 to 130 nM	< 10 nM	COc1cccc(-c2cncc(Nc3nc(N[C@@H]4CCCC[C@@H]4N)c(F)cc3C(N)=O)c2)c1F (relative stereo) [Example 004-197, 6-(cis-2-aminocyclohexylamino)-5-fluoro-2-((5-(2-fluoro-3-methoxyphenyl)pyridin-3-yl)amino)nicotinamide]
65 to 130 nM	< 10 nM	COc1ccc(-c2cncc(Nc3nc(N[C@@H]4CCCC[C@@H]4N)c(F)cc3C(N)=O)c2)c(F)c1 (relative stereo) [Example 004-198, 6-(cis-2-aminocyclohexylamino)-5-fluoro-2-((5-(2-fluoro-4-methoxyphenyl)pyridin-3-yl)amino)nicotinamide]
130 to 200 nM	< 10 nM	COc1ccc(F)c(-c2cncc(Nc3nc(N[C@@H]4CCCC[C@@H]4N)c(F)cc3C(N)=O)c2)c1 (relative stereo) [Example 004-199, 6-(cis-2-aminocyclohexylamino)-5-fluoro-2-((5-(2-fluoro-5-methoxyphenyl)pyridin-3-yl)amino)nicotinamide]
